Here are results for 28 compounds from PMC6982223, “Design, Synthesis and Molecular Modeling Study of Conjugates of ADP and Morpholino Nucleosides as A Novel Class of Inhibitors of PARP-1, PARP-2 and PARP-3” (International Journal of Molecular Sciences, 2019).

Molecules are shown by their SMILES.

Experiment [1] deals with T1, Murine recombinant poly(ADP-ribose)-polymerase 2 (Mus musculus, UniProt O88554).
T1 construct: made in house
Briefly: autopoly(ADP-ribosyl)ation of PARP-2, [32P]NAD+ incorporation. Type of experiment: biochemical. As to conditions: for remaining activity at 1000 µM / Residual PARP-2 activity: in the presence of 1 mM compound; for remaining activity at 1000 µM: read-out: Residual PARP-2 activity (converted); for IC50: autopoly(ADP-ribosyl)ation, 0.6 mM NAD+. An excerpt:
(§1) The oligonucleotides were purchased from Biosset (Novosibirsk, Russia). The reagents, solvents and the basic components of buffers were purchased from Sigma (St. Louis, MO, USA), Acros organics (Waltham, MA, USA) or Promega (Madison, WI, USA). γ–[^32P]-ATP and α–[^32P]-ATP (with specific activities of 5000 and 3000 Ci/mmol, respectively) were from the Laboratory of Biotechnology (Institute of Chemical Biology and Fundamental Medicine, Novosibirsk, Russia). T4 polynucleotide kinase was from Biosan (Novosibirsk, Russia). SUMO fusion expression vector pETHSUL (GenBank: EF205333.1) and pSUPER vector coding for the catalytic domain of the S. cerevisiae SUMO hydrolase dtUD1 were kindly provided by Dr. P. Loll (Drexel University, Philadelphia, USA). His6 and Strep-II double-tagged dtUD1 hydrolase was expressed and purified as described in ref. [81]. Human recombinant poly(ADP-ribose)-polymerase 1 (EC 2.4.2.30) was prepared as described previously. Murine recombinant poly(ADP-ribose)-polymerase 2 (EC 2.4.2.30) was purified as described previously. Plasmid encoding human PARP-3 was kindly provided by Dr. A. Ishchenko (Gustave Roussy, Université Paris-Saclay, France). Poly(ADP-ribose)-polymerase 3 (EC 2.4.2.30) was purified according to [6].
(§2) The reaction of autopoly(ADP-ribosyl)ation was carried out as follows: for PARP-1 50 mM tris-HCl, pH 8.0, 20 mM MgCl2, 150 mM NaCl, and 7 mM β-mercaptoethanol, activated DNA 2 OE/mL, 0.3 mM [^32P] NAD+ at 37 °C. The reaction was initiated by adding PARP-1 to 200 nM and the reaction mixtures were incubated for 1.5 min. For PARP-2: 50 mM tris-HCl, pH 8.0, 3 mM spermin, 150 mM NaCl, and 7 mM β-mercaptoethanol, activated DNA 2 OE/mL, 0.6 mM [^32P] NAD+ at 37 °C. The reaction was initiated by adding PARP-2 to 800 nM and the reaction mixtures were incubated for 5 min. The reaction was stopped by placing 10 μL aliquots onto Whatman 1 paper filters soaked with 5 % TCA. The filters were washed with 5% TCA for four times and dried in air after the removal of TCA with 90% ethanol. The incorporation of radioactivity into the product was calculated with a Tri-Carb 2800 scintillation counter (Perkin Elmer, Waltham, MA, USA) according to the Cherenkov method or using Typhoon FLA 9500 scanner (GE Healthcare, Chicago, IL, USA). To determine the IC50 value of inhibitors (concentration of the compound required reducing the enzyme activity by 50%), we studied the activity of the enzyme at different concentrations of inhibitors. Measurements were done in at least two independent experiments. IC50 values were calculated using the Origin Pro 8.0 software by nonlinear regression analysis.

For experiment [2], the target named is T2, Human recombinant poly(ADP-ribose)-polymerase 1 (Homo sapiens, UniProt P09874).
T2 construct: made in house
The experiment can be described thus: autopoly(ADP-ribosyl)ation of PARP-1, [32P]NAD+ incorporation. Type of experiment: biochemical. To be noted: for remaining activity at 1000 µM / Residual PARP-1 activity: in the presence of 1 mM compound; for remaining activity at 1000 µM: read-out: Residual PARP-1 activity (converted); for IC50: autopoly(ADP-ribosyl)ation, 0.3 mM NAD+.
Description: as §1, §2

T1 sequence (O88554 whole entry): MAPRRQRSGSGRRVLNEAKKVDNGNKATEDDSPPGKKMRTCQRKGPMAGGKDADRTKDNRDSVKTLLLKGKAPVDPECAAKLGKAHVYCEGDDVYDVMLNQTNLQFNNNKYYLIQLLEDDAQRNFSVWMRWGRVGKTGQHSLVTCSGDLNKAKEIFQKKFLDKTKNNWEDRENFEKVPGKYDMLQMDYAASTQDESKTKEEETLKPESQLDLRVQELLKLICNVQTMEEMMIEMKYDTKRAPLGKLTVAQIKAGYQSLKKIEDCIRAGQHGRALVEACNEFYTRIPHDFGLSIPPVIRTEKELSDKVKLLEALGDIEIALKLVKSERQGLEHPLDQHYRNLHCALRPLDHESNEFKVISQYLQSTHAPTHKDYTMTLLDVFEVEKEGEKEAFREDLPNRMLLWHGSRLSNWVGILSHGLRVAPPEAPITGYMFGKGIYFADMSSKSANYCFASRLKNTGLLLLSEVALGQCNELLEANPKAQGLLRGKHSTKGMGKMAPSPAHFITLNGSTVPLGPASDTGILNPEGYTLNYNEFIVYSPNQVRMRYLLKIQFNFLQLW
T2 sequence (P09874 whole entry): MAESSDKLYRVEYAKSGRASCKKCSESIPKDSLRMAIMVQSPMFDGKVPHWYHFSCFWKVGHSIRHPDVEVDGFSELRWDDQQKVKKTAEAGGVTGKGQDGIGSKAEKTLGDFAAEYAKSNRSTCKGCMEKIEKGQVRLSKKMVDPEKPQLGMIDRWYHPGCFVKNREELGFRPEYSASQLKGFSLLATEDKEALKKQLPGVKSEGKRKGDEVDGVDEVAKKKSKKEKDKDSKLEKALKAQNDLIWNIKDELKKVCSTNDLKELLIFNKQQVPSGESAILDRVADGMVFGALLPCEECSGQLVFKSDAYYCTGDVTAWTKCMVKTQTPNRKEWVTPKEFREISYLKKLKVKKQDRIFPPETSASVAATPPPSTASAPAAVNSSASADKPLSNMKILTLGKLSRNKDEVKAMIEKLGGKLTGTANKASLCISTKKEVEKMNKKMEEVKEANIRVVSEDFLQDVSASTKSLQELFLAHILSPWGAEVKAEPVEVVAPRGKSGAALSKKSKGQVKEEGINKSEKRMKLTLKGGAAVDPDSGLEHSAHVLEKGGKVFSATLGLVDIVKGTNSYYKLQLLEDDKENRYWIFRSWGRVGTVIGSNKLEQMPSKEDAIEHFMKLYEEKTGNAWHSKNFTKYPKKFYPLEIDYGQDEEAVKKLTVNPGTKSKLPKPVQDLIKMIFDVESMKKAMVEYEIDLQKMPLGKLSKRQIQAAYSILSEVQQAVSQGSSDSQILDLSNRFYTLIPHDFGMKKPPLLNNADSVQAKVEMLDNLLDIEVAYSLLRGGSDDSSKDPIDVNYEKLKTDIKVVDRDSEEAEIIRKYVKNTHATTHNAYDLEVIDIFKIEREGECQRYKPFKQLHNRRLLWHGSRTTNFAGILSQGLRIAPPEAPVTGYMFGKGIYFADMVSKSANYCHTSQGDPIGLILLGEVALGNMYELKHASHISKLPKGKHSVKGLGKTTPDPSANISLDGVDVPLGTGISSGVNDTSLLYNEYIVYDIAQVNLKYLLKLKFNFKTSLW

Take `Nc1nc2c(ncn2[C@H]2CNC[C@@H](CO)O2)c(=O)[nH]1` [Compound 11G]: the remaining activity at 1000 µM in experiment [1] is 64%.

Take `Nc1ncnc2c1ncn2C1OC(COP(=O)(O)OP(=O)(O)OCC2CNCC(n3cc(Br)c(=O)[nH]c3=O)O2)C(O)C1O` (centres unmarked) [Compound 4BrU]: the remaining activity at 1000 µM in experiment [2] is 36%. Moreover, the IC50 in experiment [1] was 474 µM.

As for `O=c1[nH]c(=O)n([C@@H]2O[C@H](CO)[C@@H](O)[C@H]2O)cc1Cl` [Compound 5-Cl-Urd, 5-Cl-uridine, reference compound], the “Residual PARP-1 activity” value in experiment [2] is 82% ±17%. Also, the IC50 in experiment [1] was 196 ± 25 µM.

Consider `Nc1nc2c(ncn2C2CNCC(CNP(=O)(O)OP(=O)(O)OCC3OC(n4cnc5c(N)ncnc54)C(O)C3O)O2)c(=O)[nH]1` (centres unmarked) [Compound 10G], for which the remaining activity at 1000 µM in experiment [2] was 74%. Moreover, the IC50 in experiment [1] is 224 µM.

In the case of `Nc1ncnc2c1ncn2C1OC(COP(=O)(O)OP(=O)(O)NCC2CNCC(n3cc(Br)c(=O)[nH]c3=O)O2)C(O)C1O` (centres unmarked) [Compound 10BrU], the remaining activity at 1000 µM in experiment [2] is 60%. In addition, in experiment [1], the half-inhibitory concentration (IC50) was 254 µM.

On to `Cc1cn([C@@H]2O[C@H](CO)[C@@H](O)[C@H]2O)c(=O)[nH]c1=O` [rThd, reference compound], for which the IC50 in experiment [2] came out at 277 ± 107 µM; in experiment [1], 330 ± 61 µM.

In the case of `Nc1ncnc2c1ncn2[C@@H]1O[C@H](CO)[C@@H](O)[C@H]1O` [Ado, reference compound], the “Residual PARP-1 activity” value in experiment [2] was 77% ± 21%. Besides, the “Residual PARP-2 activity” value in experiment [1] was 86% ± 1%.

Take `Nc1ncnc2c1ncn2C1OC(COP(=O)(O)OP(=O)(O)OCC2CNCC(n3cc(Cl)c(=O)[nH]c3=O)O2)C(O)C1O` (centres unmarked) [Compound 4ClU]: the remaining activity at 1000 µM in experiment [2] was 57.5%; in experiment [1], 46.8%.

For `Nc1ncnc2c1ncn2C1OC(COP(=O)(O)OP(=O)(O)OCC2CNCC(n3ccc(=O)[nH]c3=O)O2)C(O)C1O` (centres unmarked) [Compound 4U], the results for the remaining activity at 1000 µM in experiment [2] and in experiment [1] were 93% and 67%, respectively.

With `Nc1ccn([C@@H]2O[C@H](CO)[C@@H](O)[C@H]2O)c(=O)n1` [Cyd, reference compound], the “Residual PARP-1 activity” value in experiment [2] is listed as 81% ± 16%. Further, the “Residual PARP-2 activity” value in experiment [1] was 85% ± 4%.

Take `O=c1[nH]c(=O)n([C@@H]2O[C@H](CO)[C@@H](O)[C@H]2O)cc1I` [Compound 5-I-Urd, 5-I-uridine, reference compound]: the figures for the IC50 in experiment [2] and in experiment [1] were 49 ± 9 µM and 26.5 ± 3.5 µM, respectively.

As for `Cc1cn(C2CNCC(COP(=O)(O)OP(=O)(O)OCC3OC(n4cnc5c(N)ncnc54)C(O)C3O)O2)c(=O)[nH]c1=O` (centres unmarked) [Compound 4T], the remaining activity at 1000 µM in experiment [2] is 40%. Also, the IC50 in experiment [1] is 474 µM.

In the case of `Nc1ccn(C2CNCC(COP(=O)(O)OP(=O)(O)OCC3OC(n4cnc5c(N)ncnc54)C(O)C3O)O2)c(=O)n1` (centres unmarked) [Compound 4C], the remaining activity at 1000 µM was 96% in experiment [2] and 66% in experiment [1].

Turning to `Nc1ncnc2c1ncn2C1OC(COP(=O)(O)OP(=O)(O)NCC2CNCC(n3ccc(=O)[nH]c3=O)O2)C(O)C1O` (centres unmarked) [Compound 10U], the remaining activity at 1000 µM is 89% in experiment [2] and 33% in experiment [1].

On to `Nc1nc2c(ncn2[C@@H]2O[C@H](CO)[C@@H](O)[C@H]2O)c(=O)[nH]1` [Guo, reference compound], for which, in experiment [2], the “Residual PARP-1 activity” value is 60% ± 13%. The “Residual PARP-2 activity” value in experiment [1] is 46% ± 25%.

For the compound `Nc1ccn([C@H]2CNC[C@@H](CO)O2)c(=O)n1` [Compound 11C], the remaining activity at 1000 µM in experiment [1] is 58%.

Turning to `Nc1ncnc2c1ncn2[C@H]1CNC[C@@H](CO)O1` [Compound 11A], the figures for the remaining activity at 1000 µM in experiment [2] and in experiment [1] were 82% and 90%, respectively.

In the case of `O=c1ccn([C@@H]2O[C@H](CO)[C@@H](O)[C@H]2O)c(=O)[nH]1` [Urd, reference compound], in experiment [1], the “Residual PARP-2 activity” value was 96% ± 10%.

For `O=c1[nH]c(=O)n([C@H]2CNC[C@@H](CO)O2)cc1Br` [Compound 11BrU], the IC50 amounted to 61 ± 16 µM in experiment [2] and 210 ± 48 µM in experiment [1].

On to `Nc1nc2c(ncn2C2CNCC(COP(=O)(O)OP(=O)(O)OCC3OC(n4cnc5c(N)ncnc54)C(O)C3O)O2)c(=O)[nH]1` (centres unmarked) [Compound 4G], for which the remaining activity at 1000 µM in experiment [2] was 45.5%; in experiment [1], 34%.

For `Cc1cn([C@H]2CNC[C@@H](CO)O2)c(=O)[nH]c1=O` [Compound 11T], the IC50 stood at 148 ± 53 µM in experiment [2] and 114 ± 32 µM in experiment [1].

`Nc1ncnc2c1ncn2C1OC(COP(=O)(O)OP(=O)(O)NCC2CNCC(n3cc(Cl)c(=O)[nH]c3=O)O2)C(O)C1O` (centres unmarked) [Compound 10ClU]: the remaining activity at 1000 µM is 46% in experiment [2] and 47% in experiment [1].

For the compound `Nc1ccn(C2CNCC(CNP(=O)(O)OP(=O)(O)OCC3OC(n4cnc5c(N)ncnc54)C(O)C3O)O2)c(=O)n1` (centres unmarked) [Compound 10C], the values for the remaining activity at 1000 µM in experiment [2] and in experiment [1] were 87.5% and 34.5%, respectively.

`Cc1cn(C2CNCC(CNP(=O)(O)OP(=O)(O)OCC3OC(n4cnc5c(N)ncnc54)C(O)C3O)O2)c(=O)[nH]c1=O` (centres unmarked) [Compound 10T]: the IC50 in experiment [2] is 220 µM; in experiment [1], 136 µM.

As for `Nc1ncnc2c1ncn2C1CNCC(COP(=O)(O)OP(=O)(O)OCC2OC(n3cnc4c(N)ncnc43)C(O)C2O)O1` (centres unmarked) [Compound 4A], the remaining activity at 1000 µM in experiment [2] is 80%. Also, the IC50 in experiment [1] is 421 ± 6 µM.

`O=c1[nH]c(=O)n([C@@H]2O[C@H](CO)[C@@H](O)[C@H]2O)cc1Br` [Compound 5-Br-Urd, 5-Br-uridine, reference compound]: the results for the IC50 in experiment [2] and in experiment [1] were 244 ± 83 µM and 190 ± 16 µM, respectively.

On to `O=c1ccn([C@H]2CNC[C@@H](CO)O2)c(=O)[nH]1` [Compound 11U], for which the figures for the remaining activity at 1000 µM in experiment [2] and in experiment [1] were 91% and 97%, respectively.

In the case of `O=c1[nH]c(=O)n([C@H]2CNC[C@@H](CO)O2)cc1Cl` [Compound 11ClU], the IC50 in experiment [2] amounted to 233 ± 25 µM; in experiment [1], 378 µM.

What is called IC50 is the point on the concentration scale where inhibition reaches its midpoint.
